Results reported in the supplement of paper PMC10331698.
± gives the standard deviation of the averaged measurements.

Legend:
Test in all cases: LOEC (log10 uM (lowest observed effect concentration))
[1] = compound: C=CC(=O)OCC(F)(F)C(F)(F)C(F)(F)C(F)(F)COC(=O)C=C [1H,1H,6H,6H-Perfluorohexane-1,6-diol diacrylate]
Protocol: (§1)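 BioMAP Diversity Plus panel in human primary cell co-cultures, 4 concentrations in duplicate blinded samples. Responses are log10 fold change versus DMSO control, processed with tcpl v2.1.0. A hit is called when responses at any concentration exceed the cutoff (the larger of 3*bmad or log10(1.2)); the lowest observed effect concentration (modl_ga, log10 uM) is reported for hits.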

[2] = compound: FC(F)(I)C(F)(F)C(F)(F)C(F)(F)C(F)(F)C(F)(F)I [1,6-Diiodoperfluorohexane]
Protocol: as §1

[3] = compound: O=C(CC(=O)C(F)(F)C(F)(F)C(F)(F)F)c1cccs1 [(Perfluorobutyryl)-2-thenoylmethane]
Protocol: as §1

Perfluoropinacol = compound: OC(C(F)(F)F)(C(F)(F)F)C(O)(C(F)(F)F)C(F)(F)F [Perfluoropinacol]
Protocol: as §1

[4] = compound: OCCCC(F)(F)C(F)(F)C(F)(F)C(F)(F)C(F)(F)C(F)(F)C(F)(F)C(F)(F)F [3-(Perfluorooctyl)propanol]
Protocol: as §1

[5] = compound: OCCC(F)(F)C(F)(F)C(F)(F)C(F)(F)C(F)(F)C(F)(F)C(F)(F)C(F)(F)F [8:2 Fluorotelomer alcohol]
Protocol: as §1

Test System | LOEC (log10 uM) [1] | LOEC (log10 uM) [2] | LOEC (log10 uM) [3] | LOEC (log10 uM) (Perfluoropinacol) | LOEC (log10 uM) [4] | LOEC (log10 uM) [5]
3C Eselectin down | 1.3 | 1.54 ± 0.34 | 1.78 | 1.54 ± 0.34 | 1.54 ± 0.34 | 
3C HLADR down | 1.3 | 1.54 ± 0.34 | 1.07 ± 0.32 | 1.3 | 1.3 | 1.3
3C ICAM1 down | 1.54 ± 0.34 | 1.78 | 1.78 |  | 1.3 | 1.78
3C IL8 down | 1.54 ± 0.34 | 1.54 ± 0.34 | 0.845 | 1.78 | 1.3 | 1.78
3C MCP1 down | 1.3 | 1.54 ± 0.34 | 1.3 | 1.78 | 1.3 | 1.78
3C MIG down | 1.3 | 1.78 | 1.78 | 1.78 | 1.78 | 
3C Thrombomodulin up |  | 1.54 ± 0.34 |  |  |  | 
3C TissueFactor down | 1.07 ± 0.32 | 1.78 | 1.3 | 1.3 | 1.3 | 1.54 ± 0.34
3C VCAM1 down | 1.3 | 1.54 ± 0.34 | 1.3 | 1.78 | 1.3 | 1.3
3C uPAR down | 1.3 | 1.78 | 0.845 | 0.845 | 1.54 ± 0.34 | 1.3
4H MCP1 down | 1.78 | 1.54 ± 0.34 | 1.3 | 1.54 ± 0.34 | 1.78 | 
4H VEGFRII down | 1.54 ± 0.34 |  | 1.3 | 1.54 ± 0.34 | 1.78 | 1.54 ± 0.34
BE3C Keratin818 down |  | 1.78 | 1.3 |  | 1.78 | 1.54 ± 0.34
BE3C MMP1 down |  |  | 1.78 |  |  | 
BE3C SRB down |  | 1.78 | 1.78 | 1.78 | 1.78 | 1.3
BF4T CD90 down |  |  |  |  | 1.54 ± 0.34 | 
BF4T IL1a down | 1.78 | 1.54 ± 0.34 | 1.78 |  | 1.78 | 
BF4T IL8 down |  | 1.3 |  |  | 1.78 | 
BF4T Keratin818 down |  | 1.78 | 1.3 |  | 1.54 ± 0.34 | 
BF4T MMP1 down |  | 1.78 | 1.54 ± 0.34 |  | 1.78 | 
BF4T MMP3 down |  | 1.3 | 1.54 ± 0.34 |  | 1.78 | 
BF4T uPA down | 1.78 | 1.54 ± 0.34 | 1.54 ± 0.34 |  | 1.54 ± 0.34 | 1.78
CASM3C IL6 down |  | 1.54 ± 0.34 | 1.78 |  |  | 
CASM3C IL8 down |  | 1.54 ± 0.34 |  |  | 1.78 | 
CASM3C LDLR down |  | 1.54 ± 0.34 | 1.54 ± 0.34 |  | 1.78 | 1.78
CASM3C MCP1 down | 1.78 | 1.3 | 1.78 |  | 1.54 ± 0.34 | 1.78
CASM3C MCP1 up |  |  |  | 1.54 ± 0.34 |  | 
CASM3C PAI1 down | 1.78 | 1.78 |  |  | 1.78 | 1.78

Test System | LOEC (log10 uM) [1] | LOEC (log10 uM) [2] | LOEC (log10 uM) [3] | LOEC (log10 uM) (Perfluoropinacol) | LOEC (log10 uM) [4] | LOEC (log10 uM) [5]
CASM3C SAA down | 1.3 | 1.3 | 1.78 |  | 1.78 | 1.78
CASM3C Thrombomodulin up |  | 1.3 |  |  |  | 
CASM3C TissueFactor down |  |  | 0.845 |  | 1.78 | 1.78
CASM3C TissueFactor up | 1.78 |  |  |  |  | 
KF3CT ICAM1 up |  |  |  | 1.78 |  | 
KF3CT IL1a down | 1.54 ± 0.34 | 1.3 |  |  | 0.845 | 1.3
KF3CT IP10 down | 1.3 | 1.3 |  | 1.78 | 1.3 | 1.3
KF3CT MCP1 up |  |  |  | 1.3 |  | 
KF3CT uPA down | 1.3 | 1.3 |  |  | 1.3 | 1.3
LPS Eselectin down | 1.3 | 1.54 ± 0.34 |  | 1.78 | 0.845 | 1.78
LPS IL8 down | 1.3 | 1.54 ± 0.34 |  |  | 0.845 | 1.54 ± 0.34
LPS MCSF down | 1.3 | 1.78 |  | 1.3 | 1.3 | 1.04 ± 1
LPS PGE2 down | 1.3 |  |  |  |  | 
LPS Thrombomodulin down |  |  |  | 1.07 ± 0.32 |  | 
LPS TissueFactor down | 1.3 | 1.78 |  | 1.78 | 1.31 ± 0.66 | 1.78
LPS TissueFactor up |  |  | 1.3 |  |  | 
MyoF CollagenIV down | 1.3 |  |  |  |  | 
MyoF Decorin down | 1.3 | 1.3 |  | 1.78 | 1.3 | 1.3
MyoF IL8 down | 1.3 | 1.3 |  |  | 1.3 | 1.3
MyoF MMP1 down |  |  |  |  | 1.3 | 
MyoF PAI1 down | 1.3 | 1.07 ± 0.32 |  | 1.78 | 1.3 | 1.3
MyoF SRB down | 1.3 | 0.845 |  | 1.78 | 1.3 | 1.3
MyoF TIMP1 down | 1.3 | 1.3 |  |  | 1.3 | 1.3
MyoF bFGF down | 1.3 | 0.845 |  |  | 1.3 | 1.3
hDFCGF CollagenI down |  |  | 1.3 |  |  | 1.78
hDFCGF MCP1 up |  |  |  | 1.3 |  | 
hDFCGF SRB up |  |  | 0.845 |  |  | 
